The record followed here is patent US9028887B2, “Method improve spatial memory via pterostilbene administration” (The United States of America, as represented by the …, priority 2007, dated 2015).

This data set in a line: Pterostilbene in subject hippocampal tissue by GC-MS. It is filed as in vivo, rat. The procedure: Hippocampal brain tissue was extracted from subjects that were euthanized 2-3 weeks following Morris Water Maze testing. The tissue samples were stored at −80° C. and thawed in ice prior to extraction. Tissues were homogenized in 500 μL of phosphate buffer (pH 7.4) then centrifuged (7000 g, 4° C., 15 min). The supernatant was collected and homogenization was repeated. The combined supernatant was extracted with ethyl acetate (500 μL×2). The ethyl acetate extract was dried under a stream of nitrogen.
The dried extract was treated with 30 μL of N,O-bis[trimethylsilyl]trifluoroacetamide:dimethylformamide (BSTFA:DMF, 1:1; Pierce Biotechnology, Inc., Rockford, Ill.) and heated at 70° C. for 40 min. The derivatized sample was used for analysis of pterostilbene by gas chromatography-mass spectrometry (GC-MS). GC-MS was performed on a JEOL GCMate II Instrument (JEOL USA Inc., Peabody, Mass.) using as a J&W DB-5 capillary column (0.25 mm internal diameter, 0.25 μm film thickness, 30 m length; Agilent Technologies, Foster City, Calif.). […] The carrier gas was ultrahigh purity helium, at 1 mL/min flow rate. […] Pterostilbene was determined and quantified from a reconstructed ion chromatogram using m/z 328, 313, 297 and 147. Quantitation was performed from calibration curve of a standard sample of pterostilbene (retention time, 12.5 min). […]

In turn, `COc1cc(/C=C/c2ccc(O)cc2)cc(OC)c1` [pterostilbene, trans-3,5-dimethoxy-4′-hydroxystilbene] showed a hippocampal pterostilbene (high dose diet 0.016% (10 mg/kg), 12-13 weeks on diet) of 1.352±0.465 ng/tissue sample. For the setting “low dose diet 0.004% (2.5 mg/kg)”, the hippocampal pterostilbene detectability entry is listed as “only detectable in the high dose pterostilbene group”.
